Measured values published in ChEMBL document CHEMBL5346907, “Discovery of a novel oral type Ⅰ CDK8 inhibitor against acute myeloid leukemia” (Eur J Med Chem, 2023).

How the values were obtained:
Format in all cases: functional
MOLM-13 = assay: Antiproliferative activity against human MOLM-13 cells incubated for 48 hrs by CCK8 assay
MGC-803 = assay: Antiproliferative activity against human MGC-803 cells incubated for 48 hrs by CCK8 assay
A549 = assay: Antiproliferative activity against human A549 cells incubated for 48 hrs by CCK8 assay
A-375 = assay: Antiproliferative activity against human A-375 cells incubated for 48 hrs by CCK8 assay
MV4-11 = assay: Antiproliferative activity against human MV4-11 cells incubated for 48 hrs by CCK8 assay
GES1 = assay: Antiproliferative activity against human GES1 cells incubated for 48 hrs by CCK8 assay
MDA-MB-231 = assay: Antiproliferative activity against human MDA-MB-231 cells incubated for 48 hrs by CCK8 assay

GI50 (MOLM-13): 0.02 µM
GI50 (MGC-803): 16.3 µM
GI50 (A549): 12.1 µM
GI50 (A-375): 5.9 µM
GI50 (MV4-11): 0.07 µM
GI50 (MDA-MB-231): 9.6 µM
SMILES: Cc1c(Br)c(Br)c2c3c1nc(N1CCNCC1)n3CCC2 [SEL-120 FREE BASE]
GI50 (GES1): 55.3 µM
